Data published in US20010000786A1, “Product for promoting weight loss in overweight dogs” (priority 1998, published 2001).

What was measured:
[1] = test system: overweight dogs; experiment: Body weight and food intake of overweight dogs fed low-fat diets with supplemental L-carnitine; type: in vivo, beagle dogs; details: for average voluntary consumption of the diet: seven weeks of feeding; for body weight change: seven weeks ad libitum, P<0.05 from control
Text: (§1) Thirty adult ovariohysterectomized female beagle dogs were used to study the effects of L-carnitine supplementation on weight loss. All of the animals were current on their vaccination and parasite prevention program. The dogs were housed individually in oversize pens and identified by a unique ear tattoo. Fresh water was provided ad libitum during the entire study period. Food intake was adjusted as necessary to achieve the desired weight for the study period.
Three dietary treatments were evaluated. The study consisted of three periods: weight gain, maintenance, and weight loss. During the eleven-week weight gain period, all dogs were fed a single diet Eukanuba Veterinary Diets® Nutritional Recovery Formula™ which contains 36.1 wt % protein, 26.1 wt % fat, and 2.1 wt % crude fiber) ad libitum.
(§2) At the initiation of the maintenance phase of the study (baseline or day 0), the dogs were randomized based on body weight into three dietary treatment groups of ten dogs each with a three day feed transition period starting on day 0. Each treatment group was randomly assigned to one of three low-fat diets (Table 1). The only difference between diets was the addition of 0, 50, or 100 ppm supplemental L-carnitine. No differences in the initial body weight or body condition score existed between groups.
The dogs were on 100% experimental diet on day 3 and were fed ad libitum during the seven-week maintenance phase of the study.
(§3) During the twelve-week weight loss phase of the study, the same experimental diets were offered as during the maintenance phase. However, the food intake was decreased to produce approximately 1.5 to 2.5% body weight loss per week. Exact amounts of experimental diets were fed to the dogs at approximately the same time each day, and remaining feed amounts were weighed the following day. Food intake and body weight were monitored daily and weekly, respectively. Whole body composition using the Dual Energy X-ray Absorptiometer (DEXA), and blood samples for CBC and chemistry were collected periodically during the study. Whole Body Composition by Dual Energy X-ray Absorptiometry. The dogs were scanned with a Hologic QDR-2000 Plus Dual-Energy X-Ray Absorptiometry (DEXA) bone densitometer, supported with Hologic MXA software, version 8.0. All dogs were anesthetized and placed on the Dual Energy X-ray Absorptiometry (DEXA) table in dorsal recumbency, with legs stretched caudally to avoid overlap of the legs over the body. The dogs were scanned using the Enhanced Array Whole Body software. The body composition measurements recorded consisted of surface area (cm^2), bone mineral content (BMC), bone mineral density (BMD), lean mass, fat content, percent fat, and estimated body weight. All measurements were reported in grams except for percent fat and area (cm^2). Percent lean and percent BMC were calculated from the lean mass, BMC, and estimated body weight data from the DEXA results.
A repeated measure classification analysis of variance was used to study “Treatment” and time dependent “Treatment×Time” effects (Gill and Hafs, J. Animal Sci. 33(2):331(1971)). The variables from the complete blood count, blood chemistry, body composition and body weights were studied using this analysis. All F-tests and mean separations using the Least Square Difference (LSD) used 0.05 Type 1 Error rate. […]

[2] = test system: overweight dogs; experiment: Whole body composition by Dual Energy X-ray Absorptiometry (DEXA); type: in vivo, beagle dogs
Text: as §1, §2, §3
The whole body composition was performed concomitantly and under anesthesia. The anesthetic regimen consisted of Atropine (0.01 mg/lb) as a pre-anesthetic, the combination Xylazine/Telazol/Torbugesic (0.8/6.7/0.13 mg/kg) as induction and Isoflurane (Aerrane, Ohmeda Pharmaceutical Products, Liberty Corner, N.J.) as a maintenance agent using a nose cone.
A repeated measure classification analysis of variance was used to study “Treatment” and time dependent “Treatment×Time” effects (Gill and Hafs, J. Animal Sci. 33(2):331(1971)). The variables from the complete blood count, blood chemistry, body composition and body weights were studied using this analysis. All F-tests and mean separations using the Least Square Difference (LSD) used 0.05 Type 1 Error rate. One degree of freedom comparisons between experimental diets B versus C (comparison 1) and A versus B and C (comparison 2) were computed for the body composition and body weight variables. Comparisons 1 and 2 form an orthogonal set. An a of 0.05 was used to test for non-zero value of the mean of the two groups defined per contract. The “Treatment×Time” interaction was investigated by computing a test for linear, quadratic, and cubic response over time for each treatment. Then a test of parallelism, equal quadric response and equal cubic response was done to test equality of trend in response among treatments. An α of 0.05 for the F-tests was used in all cases. All computations were done using SAS (statistical analysis system) software (1989).

[3] = 50 ppm supplemental carnitine, Week 0
[4] = 50 ppm supplemental carnitine, Week 7
[5] = 100 ppm supplemental carnitine, Week 0
[6] = 100 ppm supplemental carnitine, Week 7

## C[N+](C)(C)C[C@H](O)CC(=O)[O-] [L-carnitine]
[1]; 50 and 100 ppm, FIG. 7, P<0.05
  total weight loss per total food intake compared with no supplementation: greater total weight loss per total food intake
[1]; 50 ppm carnitine
  average voluntary consumption of the diet: 1574 g/week
[1]; 50 ppm supplemental carnitine in low-fat diet
  body weight change: −6.4%
[1]; 100 ppm carnitine
  average voluntary consumption of the diet: 1567 g/week
[1]; 100 ppm supplemental carnitine in low-fat diet
  body weight change: −5.7%
[2]; 50 and 100 ppm, FIG. 6
  lean body mass compared with no supplementation: leaner body mass
[2]; 50 and 100 ppm, difference day 0 to day 49, day 92, day 133 as percentage of day 0, FIG. 5
  body fat loss compared to no (0 ppm) supplementation: more body fat loss (P<0.05)
[2]; 50 and 100 ppm, difference day 0 to day 49 as percentage of day 0, FIG. 4
  body fat loss compared to 0 ppm supplementation: more body fat loss (P<0.05)
[2]; [3]
  BMC (bone mineral content) as percent of total body mass: 1.6%
  Fat mass as percent of total body mass: 42.4%
  LBM (lean body mass) as percent of total body mass: 56.0%
[2]; [4]
  BMC (bone mineral content) as percent of total body mass: 1.7%
  Fat mass as percent of total body mass: 37.8%
  LBM (lean body mass) as percent of total body mass: 60.5%
[2]; [5]
  BMC (bone mineral content) as percent of total body mass: 1.6%
  Fat mass as percent of total body mass: 42.5%
  LBM (lean body mass) as percent of total body mass: 55.9%
[2]; [6]
  BMC (bone mineral content) as percent of total body mass: 1.6%
  Fat mass as percent of total body mass: 38.9%
  LBM (lean body mass) as percent of total body mass: 59.5%
